# From patent US20090181889A1, “COMPOSITIONS AND METHODS FOR DETECTION AND TREATMENT OF HUMAN HERPESVIRUS (HHV)-6” (priority 2006, published 2009)
# T1: HHV-6B U51 (Human herpesvirus 6B, UniProt P52542)
# T1 sequence (P52542 whole entry, looked up): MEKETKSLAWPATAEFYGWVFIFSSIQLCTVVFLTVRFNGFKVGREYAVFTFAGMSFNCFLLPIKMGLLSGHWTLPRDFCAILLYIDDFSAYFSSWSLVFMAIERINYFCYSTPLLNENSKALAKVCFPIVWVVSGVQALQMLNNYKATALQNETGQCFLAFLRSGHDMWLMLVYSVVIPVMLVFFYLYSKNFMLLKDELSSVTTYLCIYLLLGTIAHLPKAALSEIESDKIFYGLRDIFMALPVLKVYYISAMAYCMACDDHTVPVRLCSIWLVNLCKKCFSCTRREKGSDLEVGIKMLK
# T2: U51 (Human herpesvirus 6A, UniProt P52382)
# T2 sequence (P52382 1-301): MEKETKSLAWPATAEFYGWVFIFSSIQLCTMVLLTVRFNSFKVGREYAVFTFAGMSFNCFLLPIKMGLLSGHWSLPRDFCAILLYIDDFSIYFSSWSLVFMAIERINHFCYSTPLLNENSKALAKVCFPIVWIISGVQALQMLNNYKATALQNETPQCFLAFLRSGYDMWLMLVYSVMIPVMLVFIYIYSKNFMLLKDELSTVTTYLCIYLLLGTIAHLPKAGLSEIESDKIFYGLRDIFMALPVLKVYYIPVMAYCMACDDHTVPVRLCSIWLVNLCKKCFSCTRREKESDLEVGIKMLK
# T3: HHV-6 U51 (Human herpesvirus 6A, UniProt P52382)
# T3 sequence (P52382 1-301): T2 sequence (P52382 1-301)
# B1: Lymphotactin: chemokine ligand (protein)
# chain: VGSEVSDKRTCVSLTTQRLPVSRIKTYTITEGSLRAVIFITKRGLKVCADPQATWVRDVVRSMDRKSNTRNNMIQTKPTGTQQSTNTAVTLTG
# Columns and labels:
# HEK293 cells = format: cell-based, human
# HHV-6B U51 [1] = target: T4, HHV-6B U51 (Human herpesvirus 6B, UniProt P52542); format: biochemical; settings: HHV-6B U51 HEK293 membranes; for % Control [35S]GTPγS binding ± SEM, U51 (+Tet): induced with 1 μg/ml tetracycline 24 h; for % Control [35S]GTPγS binding ± SEM, U51 (Unind): no tetracycline (uninduced)
# [2] = test system: wild-type 293 cells (HEK 293 cell membranes); experiment: [35S]GTPγS binding to native (wild-type) HEK293 cell membranes; format: biochemical, human; settings: binding without compound = 100%, three experiments
# HHV-6B U51 [3] = target: T1, HHV-6B U51; format: biochemical; settings: HHV-6B U51 HEK293 membranes; for % Control [35S]GTPγS binding ± SEM, U51 (+Tet): induced with 1 μg/ml tetracycline 24 h; for % Control [35S]GTPγS binding ± SEM, U51 (Unind): no tetracycline (uninduced); remark: listed apart in the source
# HHV-6B U51 [4] = target: T4, HHV-6B U51; format: binding
# U51 = target: T2, U51; settings: Fitzsimons C P, et al. 2005; cited from earlier work
# [5] = test system: herpesviruses serine proteases; settings: cited from earlier work
# [6] = test system: human μ, δ, or κ opioid receptor; experiment: [35S]GTPγS binding to control CHO cell membranes with opioid receptors; format: biochemical; settings: CHO cells stably transfected with human μ, Emax obtained at opioid concentration less than 1 μM
# HHV-6 U51 = target: T3, HHV-6 U51; settings: Beisser, et al. 1998; cited from earlier work
molecule,measurement,setting,value
"kappa opioid receptor: rat kappa opioid receptor expression plasmid, negative control",cell fusion activity compared to cells transfected with VSV-G alone,HEK293 cells,no effect
CC(C)[C@H](NC(=O)[C@H](CCC(=O)O)NC(=O)[C@H](Cc1ccccc1)NC(=O)[C@@H](C)NC(=O)[C@@H](N)Cc1ccc(O)cc1)C(=O)N[C@H](C(=O)NCC(N)=O)C(C)C [Deltorphin II],"% Control [35S]GTPγS binding ± SEM, U51 (+Tet)",HHV-6B U51 [1],91 ± 6%
same,"% Control [35S]GTPγS binding ± SEM, U51 (Unind)",HHV-6B U51 [1],98 ± 2%
"CN1CC[C@]23c4c5ccc(O)c4O[C@H]2[C@@H](O)C=C[C@H]3[C@H]1C5 [Morphine, morphine]","% Control [35S]GTPγS binding ± SEM, U51 (+Tet)",HHV-6B U51 [1],91 ± 9%
same,"% Control [35S]GTPγS binding ± SEM, U51 (Unind)",HHV-6B U51 [1],99 ± 0.9%
same,"% Control [35S]GTPγS binding ± SEM, Native",[2],99 ± 9%
MCP-3: chemokine ligand,"% Control [35S]GTPγS binding ± SEM, U51 (+Tet)",HHV-6B U51 [3],103 ± 2%
same,"% Control [35S]GTPγS binding ± SEM, U51 (Unind)",HHV-6B U51 [3],109 ± 9%
same,"% Control [35S]GTPγS binding ± SEM, Native",[2],97 ± 3%
CCC12CCN(CC3(O)CC3)C(Cc3ccc(O)cc31)C2(C)C (centres unmarked) [[^3H]bremazocine],specific binding of radiolabelled opioid to HHV-6B U51 membranes,HHV-6B U51 [4],did not specifically bind
CCL2: chemokine,action at U51,U51,agonists
"O=S(=O)(F)Cc1ccccc1 [PMSF, phenylmethylsulphonyi fluoride]",inhibition of herpesvirus serine proteases,[5],weakly inhibited
Oc1ccc2c3c1O[C@H]1c4[nH]c5ccccc5c4C[C@@]4(O)[C@@H](C2)N(CC2CC2)CC[C@]314 [[^3H]naltrindole],specific binding of radiolabelled opioid to HHV-6B U51 membranes,HHV-6B U51 [4],did not specifically bind
C[C@@H](NC(=O)[C@@H](N)Cc1ccc(O)cc1)C(=O)NCC(=O)N(C)[C@@H](Cc1ccccc1)C(=O)NCCO [DAMGO],"% Control [35S]GTPγS binding ± SEM, U51 (+Tet)",HHV-6B U51 [1],86 ± 6%
same,"% Control [35S]GTPγS binding ± SEM, U51 (Unind)",HHV-6B U51 [1],96 ± 3%
same,"% Control [35S]GTPγS binding ± SEM, Native",[2],106 ± 4%
same,"Control Cell Emax, % Control [35S]GTPγS binding ± SEM",[6],216 ± 4.4%
Interleukin-8: chemokine ligand,"% Control [35S]GTPγS binding ± SEM, U51 (+Tet)",HHV-6B U51 [3],96 ± 3%
same,"% Control [35S]GTPγS binding ± SEM, U51 (Unind)",HHV-6B U51 [3],96 ± 2%
same,"% Control [35S]GTPγS binding ± SEM, Native",[2],101 ± 5%
"US28: human cytomegalovirus 7-transmembrane protein, expressed from plasmid as positive control",cell fusion activity compared to cells transfected with VSV-G alone,HEK293 cells,~3 fold
RANTES: β-chemokine (CC-chemokine),"% Control [35S]GTPγS binding ± SEM, U51 (+Tet)",HHV-6B U51 [3],104 ± 2%
same,"% Control [35S]GTPγS binding ± SEM, U51 (Unind)",HHV-6B U51 [3],111 ± 1%
same,"% Control [35S]GTPγS binding ± SEM, Native",[2],101 ± 2%
same,binding affinity to HHV-6 U51,HHV-6 U51,nanomolar affinity
same,action at U51,U51,agonists
DPDPE,"% Control [35S]GTPγS binding ± SEM, U51 (+Tet)",HHV-6B U51 [1],99 ± 2%
same,"% Control [35S]GTPγS binding ± SEM, U51 (Unind)",HHV-6B U51 [1],96 ± 1%
same,"% Control [35S]GTPγS binding ± SEM, Native",[2],104 ± 1%
same,"Control Cell Emax, % Control [35S]GTPγS binding ± SEM",[6],254 ± 16%
C[C@@H](NC(=O)[C@@H](N)Cc1ccc(O)cc1)C(=O)NCC(=O)N(C)[C@@H](Cc1ccccc1)C(=O)NCCO [[^3H]DAMGO],specific binding of radiolabelled opioid to HHV-6B U51 membranes,HHV-6B U51 [4],did not specifically bind
CCL11: chemokine,action at U51,U51,agonists
"Oc1ccc2c3c1O[C@H]1c4[nH]c5ccccc5c4C[C@@]4(O)[C@@H](C2)N(CC2CC2)CC[C@]314 [Naltrindole, naltrindole]","% Control [35S]GTPγS binding ± SEM, U51 (+Tet)",HHV-6B U51 [1],97 ± 4%
same,"% Control [35S]GTPγS binding ± SEM, U51 (Unind)",HHV-6B U51 [1],98 ± 4%
same,"% Control [35S]GTPγS binding ± SEM, Native",[2],96 ± 4%
B1,"% Control [35S]GTPγS binding ± SEM, U51 (+Tet)",HHV-6B U51 [3],104 ± 7%
same,"% Control [35S]GTPγS binding ± SEM, U51 (Unind)",HHV-6B U51 [3],99 ± 3%
same,"% Control [35S]GTPγS binding ± SEM, Native",[2],97 ± 2%
